Experimental data published in paper PMC10222548, “Semisynthesis, Biological Evaluation and Molecular Docking Studies of Barbatic Acid Derivatives as Novel Diuretic Candidates” (Molecules, 2023).
“And” between values parts separate entries of the source, which are not always exact repeats. Equal values may be shown once.

Key:
[1] = test system: Cl^− transport, MDCK cells; experiment: In vitro diuretic activity: Cl^− transport inhibition, Transwell chamber seeded with MDCK cells; assay type: cell-based, canine; conditions: Canis lupus familiaris; 100 μmol/L, MDCK cells in Transwell; mean ± SD of three replicates; negative = promotion; read-out: Transport Inhibition Rate (%) Cl^−
Description: (§1) The traditional methods for screening diuretic drugs are mostly in vivo experiments with mice, which have a long experimental cycle and are not suitable for screening massive compounds. As we know, the generation and excretion of urine involve two processes: glomerular filtration and tubular reabsorption. Reabsorption refers to the process in which the renal tubular epithelial cells transport water and certain solutes from the tubular fluid (urine) partially or entirely back into the bloodstream. Then, 99% of the water in the original urine filtered by the glomerulus is reabsorbed, and the transport of Na^+ and Cl^− plays an important role in this process. Thiazide and furosemide diuretics exert their diuretic effects by inhibiting the transport of Na^+ and Cl^−, which affects the tubular reabsorption of the original urine. Based on this principle, we established a new type of cell screening model for diuretic active drugs. Madin–Darby canine kidney (MDCK) cells were inoculated into a Transwell chamber to simulate the renal tubules. This cell model could transport and absorb external NaCl, simulating the reabsorption phenomenon. […] The effectiveness of this model was confirmed by the validation of hydrochlorothiazide, which is a commercially available diuretic drug and could inhibit the transport of Na^+ and Cl^− in renal tubules.
(§2) Generally, the transport of Na^+ and Cl^− plays an important role in glomerular filtration and tubular reabsorption. […] For example, inhibition rates of transport of 6a and 6c were over 30%, and had better inhibitory ability than barbatic acid. […] When ethyl, propyl, and benzyl were substituted on R^1, the introduction of any group could not enhance the inhibitory activity of barbatic acid, such as 6h–u and 6j′–6p′.
(§3) Log-phase MDCK cells were seeded in the upper chambers of Transwell plates (4 × 10^4 cells/well), and 800 µL of complete culture medium was added to the lower chambers. After 24 h of incubation at 37 °C, the electrical resistance of the upper chamber cells was measured one by one (R = (Rcell − Rblank) × 0.04π). When the electrical resistance of the upper chamber cells reached ≥300 Ω cm^2, the upper chamber medium was removed and replaced with the drug solution. The blank group (given normal saline), the experimental group (1, 6a–6p′, 100 μmol/L), and the hydrochlorothiazide group (100 μmol/L) were set, and each well was treated with 100 µL of the corresponding solution. The cells were then further incubated for 24 h. After that, the upper and lower chamber fluids were removed, and 200 µL of NaCl solution (15 mg/mL) was added to the upper chamber, while 800 µL of DMEM was added to the lower chamber for continued incubation. At 0.5, 1, 2, and 3 h, 50 µL of the lower chamber fluid was taken and the OD values were measured using Na^+ and Cl^− detection kits. The transport inhibition rate (%) was calculated as follows: transport inhibition rate (%) = (ODblank − ODexperimental)/ODblank × 100%.

MDCK cells = experiment: MTT cytotoxicity assay on MDCK cells; assay type: cell-based, canine; conditions: Canis lupus familiaris, 100 μmol/L, 24 h, mean ± SD of three replicates, read-out: Growth Inhibition Rate (%)
Procedure: First, we used the MTT method to perform cytotoxicity of barbatic acid derivatives (1, 6a–6p′) on MDCK cells at the concentration of 100 μmol/L, and the results are shown in Table 1.
The MTT assay was used to evaluate the cytotoxicity of the target compounds on DMCK cells. Logarithmic-growth-phase DMCK cells were seeded in a 96-well plate (10^4 cells/well) and incubated in a cell culture incubator for 24 h. The culture medium was then removed and replaced with a drug-containing medium for the treatment groups (1, 6a–6p′, 100 μmol/L), normal saline for the control group, or hydrochlorothiazide (100 μmol/L) for the positive control group. Each well was treated with 100 µL of the respective solution and incubated for an additional 24 h. The culture medium was then removed and replaced with a DMEM solution containing 20 µL of MTT (5 mg/mL). After incubating for 4 h, the liquid in each well was removed and replaced with 150 µL of DMSO, which was shaken for 10 min to ensure thorough mixing. The absorbance at 490 nm was measured to determine the optical density (OD) of each well. Cell growth inhibition rate (%) = (ODBlank − ODExperimental)/ODBlank × 100%.

[2] = test system: Ca^2+ transport, MDCK cells; experiment: In vitro litholytic activity: Ca^2+ transport inhibition, Transwell chamber with MDCK cells; assay type: cell-based, canine; conditions: Canis lupus familiaris, 100 μmol/L, mean ± SD of three replicates, read-out: Transport Inhibition Rate (%) Ca^2+
Procedure: (§4) On the other hand, all compounds had little inhibitory effect on Ca^2+ transport. The structure–activity relationships (SARs) were also observed. […] On the other hand, the introduction of the benzyl group to the R^1 or R^2 of barbatic acid could not lead to more promising compounds, such as 6a, 6n, 6u, 6b′, and 6i′–p′.
(§5) Logarithmic-phase DMCK cells were inoculated in the upper chamber of a Transwell plate (4 × 10^4 cells/well). Then, 800 µL of complete culture medium was added to the lower chamber, and the cells were incubated for 24 h until they adhered to the wall. The resistance value of the upper chamber cells was measured one by one at 37 °C (R = (Rcell − Rblank) × 0.04π). When the resistance value of the upper chamber cells was ≥300 Ω cm^2, the upper chamber liquid was discarded for drug administration. A control group (given physiological saline) and an experimental group (1, 6a–6p′, 100 μmol/L) were set up, and 100 µL of each drug was administered per well, followed by continued incubation for 24 h. Then, the upper and lower chamber liquids were discarded, and 200 µL of CaC2O4 (30 mmol/L) solution was added to the upper chamber, and 800 µL of PBS solution was added to the lower chamber for continued incubation. At 0.5, 1, 2, and 3 h, 50 µL of the lower chamber liquid was taken and then tested using the Ca^2+ and C2O4^2− detection kits and the following detection methods. The transport inhibition rate (%) = (ODblank − ODexperimental)/ODblank × 100%.

[3] = test system: Na^+ transport, MDCK cells; experiment: In vitro diuretic activity: Na^+ transport inhibition, Transwell chamber seeded with MDCK cells; assay type: cell-based, canine; conditions: 100 μmol/L, MDCK cells in Transwell, mean ± SD of three replicates, negative = promotion; for inhibition at 100 µM: Canis lupus familiaris, MDCK, read-out: Transport Inhibition Rate (%) Na^+
Description: as §1, §2, §3

[4] = test system: C2O4^2− transport, MDCK cells; experiment: In vitro litholytic activity: C2O4^2− transport inhibition, Transwell chamber with MDCK cells; assay type: cell-based, canine; conditions: for inhibition at 100 µM: Canis lupus familiaris, 100 μmol/L, MDCK cells in Transwell, mean ± SD of three replicates, read-out: Transport Inhibition Rate (%) C2O4^2−; for C2O4^2− transport inhibition activity at different time periods: 1, 2, and 3 h (Figure 4)
Procedure: as §4, §5

With `CCOc1cc(C)c(C(=O)Oc2cc(C)c(C(=O)OC(C)C)c(O)c2C)c(O)c1C` [Compound 6k, 3-hydroxy-4-(isopropoxycarbonyl)-2,5-dimethylphenyl 4-ethoxy-2-hydroxy-3,6-dimethylbenzoate] the inhibition at 100 µM [1] was -7.1 ± 1%, the inhibition at 100 µM (MDCK cells) was under 0% and the inhibition at 100 µM [2] was 1.2 ± 0.13%. The inhibition at 100 µM [3] was -62.5 ± 1.95%, the inhibition at 100 µM [4] was -5.12 ± 1.75% and the melting point was 125 to 128 °C.

`CCCOC(=O)c1c(C)cc(OC(=O)c2c(C)cc(OCc3ccccc3)c(C)c2O)c(C)c1O` [6l′, 3-hydroxy-2,5-dimethyl-4-(propoxycarbonyl)phenyl 4-(benzyloxy)-2-hydroxy-3,6-dimethylbenzoate] gave an inhibition at 100 µM [1] of -2.92 ± 2.15%, an inhibition at 100 µM (MDCK cells) of 2.11 ± 0.9% and an inhibition at 100 µM [2] of -2.68 ± 0.39%. For the same molecule, the inhibition at 100 µM [3] was -18.2 ± 0.2%, the inhibition at 100 µM [4] was 16.5 ± 4.38% and the melting point was 115 to 118 °C.

For `Cc1cc(OC(=O)c2c(C)cc(OC(C)C)c(C)c2O)c(C)c(O)c1C(=O)OCC#N` [6a′, 4-((cyanomethoxy)carbonyl)-3-hydroxy-2,5-dimethylphenyl 2-hydroxy-4-isopropoxy-3,6-dimethylbenzoate], the inhibition at 100 µM [1] was -10 ± 1.95%, the inhibition at 100 µM (MDCK cells) was under 0% and the inhibition at 100 µM [2] was -0.91 ± 0.11%. For the same molecule, the inhibition at 100 µM [3] was -15.8 ± 4.85%, the inhibition at 100 µM [4] was -13.2 ± 1.67% and the melting point was 155 to 158 °C.

Work on `COC(=O)c1c(C)cc(OC(=O)c2c(C)cc(OC)c(C)c2O)c(C)c1O` [Compound 6b, 3-hydroxy-4-(methoxycarbonyl)-2,5-dimethylphenyl 2-hydroxy-4-methoxy-3,6-dimethylbenzoate] yielded an inhibition at 100 µM [1] of 5.71%, an inhibition at 100 µM (MDCK cells) of under 0% and an inhibition at 100 µM [2] of -5.14 ± 0.31%. The “Transport Inhibition Rate (%) Na^+” value [3] was “less than 10% and −9.31 ± 7.15%”, the inhibition at 100 µM [4] was -4.25 ± 1.08% and the melting point was 177 to 180 °C.

For `CCCOc1cc(C)c(C(=O)Oc2cc(C)c(C(=O)OCC#N)c(O)c2C)c(O)c1C` [Compound 6s, 4-((cyanomethoxy)carbonyl)-3-hydroxy-2,5-dimethylphenyl 2-hydroxy-3,6-dimethyl-4-propoxybenzoate], the inhibition at 100 µM [1] was -6.21 ± 0.3%, the inhibition at 100 µM (MDCK cells) was under 0% and the inhibition at 100 µM [2] was -1.74 ± 0.12%. For the same molecule, the inhibition at 100 µM [3] was -27.9 ± 0.5%, the inhibition at 100 µM [4] was 15.7 ± 1.13% and the melting point was 135 to 138 °C.

In the case of `CCOc1cc(C)c(C(=O)Oc2cc(C)c(C(=O)OCC#N)c(O)c2C)c(O)c1C` [Compound 6m, 4-((cyanomethoxy)carbonyl)-3-hydroxy-2,5-dimethylphenyl 4-ethoxy-2-hydroxy-3,6-dimethylbenzoate], the inhibition at 100 µM [1] is reported as -29.3 ± 1.75%, the inhibition at 100 µM (MDCK cells) is reported as under 0% and the inhibition at 100 µM [2] is reported as 2.57 ± 0.1%. The inhibition at 100 µM [3] was -2.99 ± 6%, the “C2O4^2− transport inhibition activity at different time periods” value [4] was “very strong and continual inhibitory activities” and the inhibition at 100 µM [4] was 61 ± 2.75%. The melting point was 160 to 163 °C.

`CCOC(=O)c1c(C)cc(OC(=O)c2c(C)cc(OCC)c(C)c2O)c(C)c1O` [Compound 6i, 4-(ethoxycarbonyl)-3-hydroxy-2,5-dimethylphenyl 4-ethoxy-2-hydroxy-3,6-dimethylbenzoate] showed an inhibition at 100 µM [1] of -2.13 ± 1.9%, an inhibition at 100 µM (MDCK cells) of under 0% and an inhibition at 100 µM [2] of 1.71 ± 0.13%. For the same molecule, the inhibition at 100 µM [3] was 5.2 ± 3.6%, the inhibition at 100 µM [4] was 54 ± 10.4% and the melting point was 187 to 190 °C.

`CCCOc1cc(C)c(C(=O)Oc2cc(C)c(C(=O)OC)c(O)c2C)c(O)c1C` [Compound 6o, 3-hydroxy-4-(methoxycarbonyl)-2,5-dimethylphenyl 2-hydroxy-3,6-dimethyl-4-propoxybenzoate] gave an inhibition at 100 µM [1] of -2.8 ± 1.2%, an inhibition at 100 µM (MDCK cells) of under 0% and an inhibition at 100 µM [2] of 4.43 ± 0.13%. The inhibition at 100 µM [3] was -2.68 ± 0.45%, the inhibition at 100 µM [4] was 5.6 ± 3.85% and the melting point was 110 to 113 °C.

`CCCOC(=O)c1c(C)cc(OC(=O)c2c(C)cc(OC(C)C)c(C)c2O)c(C)c1O` [Compound 6x, 3-hydroxy-2,5-dimethyl-4-(propoxycarbonyl)phenyl 2-hydroxy-4-isopropoxy-3,6-dimethylbenzoate] gave an inhibition at 100 µM [1] of -1.92 ± 0.25%, an inhibition at 100 µM (MDCK cells) of under 0% and an inhibition at 100 µM [2] of 2.74 ± 0.22%. The inhibition at 100 µM [3] was -1.11 ± 1.75%, the inhibition at 100 µM [4] was -5.42 ± 2.83% and the melting point was 117 to 120 °C.

Work on `CCCOC(=O)c1c(C)cc(OC(=O)c2c(C)cc(OCC)c(C)c2O)c(C)c1O` [Compound 6j, 3-hydroxy-2,5-dimethyl-4-(propoxycarbonyl)phenyl 4-ethoxy-2-hydroxy-3,6-dimethylbenzoate] yielded an inhibition at 100 µM [1] of 5.75 ± 1.1%, an inhibition at 100 µM (MDCK cells) of under 0% and an inhibition at 100 µM [2] of 4.45 ± 0.29%. The inhibition at 100 µM [3] was 5.2 ± 3.6%, the “C2O4^2− transport inhibition activity at different time periods” value [4] was “very strong and continual inhibitory activities” and the inhibition at 100 µM [4] was 42.3 ± 1.66%. The melting point was 154 to 157 °C.

`Cc1cc(OCc2ccccc2)c(C)c(O)c1C(=O)Oc1cc(C)c(C(=O)OCC#N)c(O)c1C` [6o′, 4-((cyanomethoxy)carbonyl)-3-hydroxy-2,5-dimethylphenyl 4-(benzyloxy)-2-hydroxy-3,6-dimethylbenzoate] gave an inhibition at 100 µM [1] of -24 ± 1.5%, an inhibition at 100 µM (MDCK cells) of under 0% and an inhibition at 100 µM [2] of -1.82 ± 0.23%. The inhibition at 100 µM [3] was -3.28 ± 0.75%, the inhibition at 100 µM [4] was 2.03 ± 1.07% and the melting point was 151 to 155 °C.

Molecule `CCOc1cc(C)c(C(=O)Oc2cc(C)c(C(=O)OC)c(O)c2C)c(O)c1C` [Compound 6h, 3-hydroxy-4-(methoxycarbonyl)-2,5-dimethylphenyl 4-ethoxy-2-hydroxy-3,6-dimethylbenzoate] has an inhibition at 100 µM [1] of 2.19 ± 0.55%, an inhibition at 100 µM (MDCK cells) of under 0% and an inhibition at 100 µM [2] of -3.85 ± 0.19%. The inhibition at 100 µM [3] was -7.67 ± 1%, the inhibition at 100 µM [4] was -4.23 ± 4.77% and the melting point was 152 to 155 °C.

`COC(=O)c1c(C)cc(OC(=O)c2c(C)cc(OC(C)C)c(C)c2O)c(C)c1O` [Compound 6v, 3-hydroxy-4-(methoxycarbonyl)-2,5-dimethylphenyl 2-hydroxy-4-isopropoxy-3,6-dimethylbenzoate] showed an inhibition at 100 µM [1] of -13.55 ± 0.1%, an inhibition at 100 µM (MDCK cells) of under 0% and an inhibition at 100 µM [2] of 0.19 ± 0.29%. For the same molecule, the inhibition at 100 µM [3] was -9.43 ± 0.75%, the inhibition at 100 µM [4] was -17.9 ± 1.35% and the melting point was 60 to 63 °C.
